Source: patent publication EP2298282B1, “COMBINATION OF DRUGS HAVING DIFFERENT PHYSICAL PROPERTIES INTO SINGLE DOSAGE FORM” (Cocokara fine Healthcare Inc., priority 2008, dated 2009)

How the values were obtained:
Assay type in all cases: physicochemical
[1] = Dispersion in aqueous 0.4% Carbopol solution (electrode gel solution for iontophoresis)
Description: Carbopol (Carbopol 940, manufactured by B. F. Goodrich, 0.2 g) was dissolved in 0.3% citrate buffer (pH 6). The pH level of this solution was adjusted at 6 with sodium hydroxide to bring the total amount of the solution to 50 g, and a solution of 0.4% Carbopol (hereafter referred to as an "aqueous 0.4% Carbopol solution") was obtained. The CoQ10-surfactant composite (CoQ10-HydroS, 5 g) obtained in Production Example 14 was dispersed in 50 g of an aqueous 0.4% Carbopol solution with the use of an agitation blade, and a clear homogeneous solution was obtained (hereafter referred to as an "aqueous 0.4% Carbopol solution containing CoQ10-HydroS").
In this case, CoQ10 remained suspended in the solution. […] Thus, CoQ10, which is a low-solubility, nutritional factor, was prepared in the form of a CoQ10-surfactant composite (CoQ10-HydroS), and an aqueous solution for an electrode gel containing a nutritional factor for iontophoresis homogeneously dispersed/dissolved in water was obtained.

[2] = Long-term stability (2-year) at room temperature, browning; settings: stored at room temperature for 2 years
Text: Long-term stability (2-year) was inspected at room temerature using S/O VC·PMg obtained in Production Example 5. A non-S/O VC·PMg solution was used as a positive control, and a dispersion medium used for S/O preparation was used as a negative control.
The photograph shown in Fig. 6 was stored at room temperature for 2 years.

[3] = Dispersion in olive oil together with vitamin E (VE)
Text: The VC·PMg-surfactant composite (VC·PMg-LipoS, 5g) obtained in Production Example 12 and 0.5 g of vitamin E (VE) were dispersed in 1 kg of olive oil with the use of an agitation blade, and a clear homogeneous solution was obtained. This homogeneous solution was subjected to plastic filling with the use of a rotary soft capsule filling machine in constant amounts of 0.4 g, and soft capsules containing VC·PMg and VE with high content uniformity were obtained. Soft capsules could be produced in a twist-off form as well as in a general oval form. Similarly, constant amounts of 0.1 g were subjected to plastic filling with the use of a seamless soft capsule filling machine to obtain soft capsules containing VC·PMg and VE with high content uniformity. […] In this case, VC·PMg remained suspended in the solution. […] The formed soft capsules were packaged in easy-peel blister packs composed of a plastic film and an aluminum film. Thus, products that allow soft capsules with a low degree of hardness to be easily removed and are clean and easy to carry were obtained. Soft capsules were also packaged in press-through blister packs.

Question: Which “appearance of the dispersion” value ([1]; dispersed in 50 g of aqueous 0.4% Carbopol solution (pH 6)) does the source give for `COC1=C(OC)C(=O)C(C/C=C(\C)CC/C=C(\C)CC/C=C(\C)CC/C=C(\C)CC/C=C(\C)CC/C=C(\C)CC/C=C(\C)CC/C=C(\C)CC/C=C(\C)CCC=C(C)C)=C(C)C1=O` [CoQ10, ubiquinone] here?
Answer: a clear solution was not obtained

Question: What about the “appearance when allowed to stand” value ([1]; in 50 g of aqueous 0.4% Carbopol solution containing 4.5 g of SLS, allowed to stand) of the same compound?
Answer: a precipitate was observed

Question: Which browning [2] does the source give for `O=C1O[C@H]([C@@H](O)CO)C([O-])=C1OP(=O)([O-])[O-].O=C1O[C@H]([C@@H](O)CO)C([O-])=C1OP(=O)([O-])[O-].[Mg+2].[Mg+2].[Mg+2]` [VC·PMg solution, magnesium ascorbyl phosphate] here?
Answer: browned with the elapse of time

Question: For `O=C1O[C@H]([C@@H](O)CO)C([O-])=C1OP(=O)([O-])[O-].O=C1O[C@H]([C@@H](O)CO)C([O-])=C1OP(=O)([O-])[O-].[Mg+2].[Mg+2].[Mg+2]` [VC·PMg, magnesium ascorbyl phosphate], which “appearance of the dispersion” value ([3]; dispersed with 0.5 g VE in 1 kg of olive oil) is on record?
Answer: a clear solution was not obtained

Question: And the “appearance when allowed to stand” value ([3]; with 0.5 g VE in 1 kg of olive oil containing 4.5 g ER-290, allowed to stand)?
Answer: a precipitate was observed
